# Measurements reported in patent publication US8518889B2, “Method of treating cancer with antibodies against long-form leukotriene B4 receptor BLT2” (Korea University Research & Business Foundation, priority 2007, dated 2013).
# Tests used:
# [1] = test system: Rat2-HO6 cells; assay: experimental metastasis assay, lung metastasis driven by H-Ras^V12; format: in vivo, nude mice; conditions: intraperitoneal 3 and 5 days after cell injection, 21 days
# Protocol: All experimental animals used in this study were treated according to guidelines approved by the Institutional Animal Care and Use Committee of Korea University. Female nude mice (Charles River, Wilmington, Mass.), four-weeks-old at the time of injection, were used in the experimental metastasis assay. Rat-2, Rat2-HO6, and Rat2-BLT2 cells (5×10^5 cells) were prepared for injection from cultures in logarithmic growth at the time of harvest. The cells were briefly treated with 0.025% trypsin and 0.1% EDTA in Hanks' balanced salt solution and quickly removed from trypsin by centrifugation, resuspended in saline containing LTB4, and injected within 1 hr in 0.1 ml into the lateral tail vein with a 26-gauge needle. For inhibitor experiments, U75302 and LY255283 (0.25 mg/kg for BLT1 antagonist and 2.5 mg/kg for BLT2 antagonist) was injected intraperitoneal ˜3 and 5 days after injection of cells that were pretreated with inhibitors. […]
# In vivo lung metastasis driven by H-Ras^V12 (panel B of FIG. 2a) or BLT2 (panel C of FIG. 2a) was reduced by BLT2 inhibition (LY255283) based on the macroscopic and histologic appearance of lung. […] Mice were euthanized 21 days after cell injection, and the number of lung metastasis nodules and weight of lung was analyzed in each group. […] Metastasis survival was analyzed in Kaplan-Meyer plots.
# [2] = test system: 253J-BV cell line; assay: Western blot of apoptotic proteins (PARP, Caspase-9, Bax); format: cell-based, human; conditions: 48 hr
# Protocol: Cells were washed with cold PBS and cells were scraped into lysis buffer [20 mM Tris-HCl (pH 7.5), 15 OmM NaCl, 0.5% NP-40, 5 mM EDTA, 1% triton X-100 added protease inhibitors] at 4° C. Harvested protein samples were heated at 95° C. for 5 min and then subjected to SDS-PAGE on acrylamide gels, followed by transfer to polyvinylidene difluoride membranes for 90 min at 100 V. The membranes were blocked for 1 h with Tris-buffered saline (TBS) containing 0.05% (vol/vol) Tween 20 plus 5% (wt/vol) nonfat dry milk and then incubated with appropriate antibodies (PARP, 1:2000 dilution, Caspase-9, 1:2000 dilution, Bax 1:2000 dilution, actin, 1:3000 dilution) in 5% nonfat milk overnight at 4° C. Then membrane bound protein-antibody complex incubated for 2 hr with HRP-conjugated secondary antibody before development with an enhanced chemiluminescence kit (Amersham Biosciences, UK). The poly ADP-ribose polymerase (PARP) cleavage have been well established as important indices of apoptosis.
# [3] = test system: 253J-BV cells; assay: cell cycle analysis (PI, flow cytometry); format: cell-based, human; conditions: 48 hr, RPMI 1640 with 0.5% FBS
# Protocol: The cells grown in 6-well plate were stimulated with 5 μM and 10 μM LY255283, 1 μM U75302 for 48 h in RPMI 1640 containing 0.5% FBS. The cells which were collected by brief trypsinization were fixed overnight with 70% ethanol at 4° C. The cells were resuspended in PBS containing RNase A (100 μg/ml) and incubated for 30 min at 37° C. The cells were stained with propidium iodide (50 μg/ml) (Sigma). Acquisition and analysis was performed by FACS using Cell Quest Alias software (BD Bioscience). […] Cells were treated with BLT antagonist for 48 hours and the cell cycle population was measured by flow cytometry. In brief, cells were plated in 6 well plate and then treated with LY255283, U75302 for 48 hr. At the end of the treatment, the cells were harvested and then centrifuged. The cells fixed in ice-cold 70% ethanol for 24 hr and centrifuged. The pellet were resuspended in 0.5 ml phosphate-buffered saline (PBS) and incubated with Pl 1 mg/ml treatment for 15 min.
# [4] = test system: 253J-BV cells; assay: [3H]-thymidine incorporation assay; format: cell-based, human; conditions: for inhibition of thymidine incorporation / cell proliferation: 48 hr
# Protocol: Cells were seed in 96-well plate at the density of 1.0×10^4/well. After 24 hr incubation in RPMI 1640 supplemented with 10% FBS, the media was replaced with RPMI 1640 containing 0.5% FBS for 12 hr. After cells were treated with different concentration BLT antagonists. Then [^3H]-thymidine (1 μCi/ml) (PerkinElmer Life Sciences) was added at 12 hr after antagonists treatment and after 36 hr of further incubation, cells were harvested on the filtermat (PerkinElmer Life Science) and filtermat was dried and packaged in the sample bag (PerkinElmer Life Science). Finally, Betaplate scint (PerkinElmer Life Science) was added to the filtermat, and the radioactivity was counted in a liquid scintillation counter (MicroBeta, Wallac/PerkinElmer). […] LY255283 inhibited proliferation by at least 50% at a concentration of 10 μM at 48 hr.
Structure (SMILES),lung metastasis driven by H-Ras^V12 [1],level of protein (Western blot) compared with control [2],cell cycle [3],inhibition of thymidine incorporation / cell proliferation [4],pro-apoptotic protein Bax level ([2]; 10 μM),apoptosis induction (PARP cleavage) [2],pro-caspase 9 level [2],"inhibition at 10 µM ([4]; Homo sapiens, 10 μM at 48 hr, read-out: inhibited proliferation) [%]"
CCCCC/C=C\C[C@@H](O)/C=C/c1cccc(C[C@@H](O)CCCCO)n1 [U75302],caused no suppression on metastasis,no significant change,not effect,not effect,–,–,–,–
"CCc1cc(C(C)=O)c(O)cc1OCCCCCC(C)(C)c1nnn[nH]1 [LY255283, 1-[5-ethyl-2-hydroxy-4-[[6-methyl-6-(1H-tetrazol-5-yl)heptyl]oxy]phenyl]-ethanone]",significantly reduced,–,arresting cell cycle at sub-G1 in dose dependent manner,concentration dependent inhibition,significant increased,Apoptosis induction was observed,reduction of pro-caspase 9,≥ 50
